Consider 1 molecule from ChEMBL document CHEMBL6109156, “Discovery of Dual PD-L1/HDAC3 Inhibitors for Tumor Immunotherapy” (J Med Chem, 2025).

The source made the active and inactive calls. No cut-off for these calls is given here.

The target in data set [1] is T1, Histone deacetylase 3 (Mus musculus) (UniProt O88895).
T1 sequence (whole entry): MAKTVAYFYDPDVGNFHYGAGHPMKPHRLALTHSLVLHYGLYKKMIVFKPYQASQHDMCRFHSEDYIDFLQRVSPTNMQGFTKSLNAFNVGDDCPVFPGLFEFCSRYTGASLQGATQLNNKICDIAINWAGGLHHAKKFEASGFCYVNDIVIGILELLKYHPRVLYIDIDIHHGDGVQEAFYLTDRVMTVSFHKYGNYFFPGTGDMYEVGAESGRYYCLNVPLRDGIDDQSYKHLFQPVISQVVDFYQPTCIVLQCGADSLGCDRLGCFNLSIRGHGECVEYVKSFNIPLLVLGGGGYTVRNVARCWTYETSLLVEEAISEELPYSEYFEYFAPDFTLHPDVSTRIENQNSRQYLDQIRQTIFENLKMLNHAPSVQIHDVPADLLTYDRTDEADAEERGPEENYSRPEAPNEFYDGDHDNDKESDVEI
The data set is described as follows: Inhibition of HDAC3 in mouse B16-F10 cells assessed as upregulation of Ac-H3 level at 3 uM incubated for 24 hrs by Western blotting analysis. The data set is classed as cell-based.

A short description of data set [2]: Toxicity in C57BL/6J mouse implanted with mouse B16-F10 cells assessed as liver damage at 20 to 40 mg/kg, ip administered once daily for 9 days by H and E staining based analysis. The data set is classed as organism-based. Conditions: in vivo, 216 h, dose 20-40 mg/kg, time 9 day.
Data set [3] has as its target Programmed cell death protein 1/Programmed cell death 1 ligand 1 (Homo sapiens) (UniProt Q15116+Q9NZQ7). Kind of data set: Inhibition of PD-1/PD-L1 (unknown origin) interaction assessed as inhibition rate at 0.1 uM by HTRF assay relative to control. The data set is classed as protein-complex assay.
The test system of data set [4] is B16-F10. Kind of data set: Immunomodulatory activity in mouse B16-F10 cells implanted in C57BL/6J mouse assessed as percentage of CD3 positive CD4 positive cells in tumor at 40 mg/kg, ip administered once daily for 9 days by flow cytometric analysis (reference value: 0.20 %). Type of data set: functional. Conditions: time 9 day.
For the next data set, the system named is 4T1. Kind of data set: Antiproliferative activity against mouse 4T1 cells assessed as cell growth inhibition incubated for 48 hrs by MTT assay. Type of data set: functional, cell-based. Conditions: 4T1, 48 h.
Data set [5] has as its system B16-F10. The data set is described as follows: Induction of apoptosis in mouse B16-F10 cells assessed as viable cells at 1 uM incubated for 48 hrs by Annexin V-FITC/PI staining based flow cytometry analysis (reference value: 92.3%). Type of data set: functional. Conditions: read-out: Activity.
Data set [6] relates to B16-F10. Kind of data set: Induction of apoptosis in mouse B16-F10 cells assessed as necrotic cells at 1 uM incubated for 48 hrs by Annexin V-FITC/PI staining based flow cytometry analysis (reference value: 2.24%). Type of data set: functional.
In data set [7] the test system is B16-F10. The data set is described as follows: Induction of apoptosis in mouse B16-F10 cells assessed as early apoptotic cells at 8 uM incubated for 48 hrs by Annexin V-FITC/PI staining based flow cytometry analysis (reference value: 0.45 %). The data set is classed as functional.
The subject of data set [8] is B16-F10. The data set is described as follows: Antitumor activity against mouse B16-F10 cells implanted in C57BL/6J mouse assessed as tumor growth inhibition at 40 mg/kg, ip administered once daily for 9 days. The data set is classed as functional. Conditions: B16-F10, 216 h, time 9 day, read-out: TGI.
The subject of data set [9] is B16-F10. Kind of data set: Antitumor activity against mouse B16-F10 cells implanted in C57BL/6J mouse assessed as tumor growth inhibition at 20 mg/kg, ip administered once daily for 9 days. Conditions: B16-F10, 216 h, time 9 day, read-out: TGI. Type of data set: functional.
The test system of data set [10] is B16-F10. The data set is described as follows: Induction of apoptosis in mouse B16-F10 cells assessed as late apoptotic cells at 8 uM incubated for 48 hrs by Annexin V-FITC/PI staining based flow cytometry analysis (reference value: 5.02 %). Type of data set: functional.
For data set [11], the system named is B16-F10. The data set is described as follows: Induction of cell cycle arrest in mouse B16-F10 cells assessed as accumulation of cells at S phase at 8 uM incubated for 48 hrs by PI staining based flow cytometry analysis (reference value: 24.04%). Type of data set: functional.
Data set [12] concerns B16-F10. Kind of data set: Induction of cell cycle arrest in mouse B16-F10 cells assessed as accumulation of cells at G0/G1 phase at 4 uM incubated for 48 hrs by PI staining based flow cytometry analysis (reference value: 70.09%). Type of data set: functional.
Data set [13] has as its system B16-F10. Kind of data set: Induction of apoptosis in mouse B16-F10 cells assessed as viable cells at 8 uM incubated for 48 hrs by Annexin V-FITC/PI staining based flow cytometry analysis (reference value: 92.3%). Conditions: read-out: Activity. Type of data set: functional.
The subject of data set [14] is B16-F10. The data set is described as follows: Induction of apoptosis in mouse B16-F10 cells assessed as late apoptotic cells at 4 uM incubated for 48 hrs by Annexin V-FITC/PI staining based flow cytometry analysis (reference value: 5.02 %). The data set is classed as functional.
The test system of data set [15] is B16-F10. The data set is described as follows: Induction of apoptosis in mouse B16-F10 cells assessed as early apoptotic cells at 1 uM incubated for 48 hrs by Annexin V-FITC/PI staining based flow cytometry analysis (reference value: 0.45 %). The data set is classed as functional.
Data set [16] has as its target T1, Histone deacetylase 3 (Mus musculus). Kind of data set: Inhibition of HDAC3 in mouse B16-F10 cells assessed as upregulation of Ac-H3 level incubated for 24 hrs by Western blotting analysis. Type of data set: cell-based. Conditions: dose 1-8 µM.
Data set [17] concerns B16-F10. The data set is described as follows: Induction of cell cycle arrest in mouse B16-F10 cells assessed as accumulation of cells at S phase at 1 uM incubated for 48 hrs by PI staining based flow cytometry analysis (reference value: 24.04%). The data set is classed as functional.
The test system of data set [18] is B16-F10. Kind of data set: Induction of apoptosis in mouse B16-F10 cells assessed as early apoptotic cells at 4 uM incubated for 48 hrs by Annexin V-FITC/PI staining based flow cytometry analysis (reference value: 0.45 %). Type of data set: functional.

For the molecule `CCCNNC(=O)CCCNCc1ccc(-c2cccc(-c3ccccc3)c2C)nc1OC`, the inhibition result in [1] was “Active”. The Activity result in data set [2] is listed as “Non-toxic”; in the data set on B16-F10 [4], 2.8%; in the data set with B16-F10 [6] it was 2.63%; in the data set on B16-F10 [7], 32.8%; with B16-F10 [10], 11.4%; in the data set with B16-F10 [11], 0.5%. The Activity in the data set with B16-F10 [12] is recorded as 91.66%; in the data set with B16-F10 [14] it was 16.4%; with B16-F10 [15], 3.34%; with B16-F10 [17], 21.79%; in the data set with B16-F10 [18], 17.1%. Also, the figures for the inhibition in data set [3] and in [16] were 55.4% and “Dose-dependent-effect”, respectively. Besides, the IC50 in the data set with 4T1 was 4.66 µM. Also, the viability at 1 µM in the data set with B16-F10 [5] came to 84.8%. In addition, the inhibition in vivo at 40 mg/kg in the data set on B16-F10 [8] turned out to be 66.5%. Further, the inhibition in vivo at 20 mg/kg with B16-F10 [9] stood at 48.9%. Further, in the data set with B16-F10 [13], the viability at 8 µM stood at 53.6%.
